According to ChEMBL document CHEMBL1201862, “PubChem BioAssay data set” (2004):
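Each compound was tested at five concentrations against cells in 96-well plates for 48 hours. The concentration for 50% growth inhibition is given as GI50.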 Calls of active or inactive are those of the source. Cut-off read from the data, not from the text of the source: active = GI50 up to about 1.1 µM and inactive = higher.

How the values were obtained:
Experiment in all cases: DTP human tumour cell line panel, 48 h
M19-MEL = test system: M19-MEL
CAKI-1 = test system: CAKI-1
U-251 = test system: U-251
LXFL 529 = test system: LXFL 529
COLO 205 = test system: COLO 205
NCI-H23 = test system: NCI-H23
M14 = test system: M14
IGROV-1 = test system: IGROV-1
SK-OV-3 = test system: SK-OV-3
CCRF-CEM = test system: CCRF-CEM
NCI-H226 = test system: NCI-H226
HCT-116 = test system: HCT-116
MCF7 = test system: MCF7
786-0 = test system: 786-0
KM12 = test system: KM12
NCI-H460 = test system: NCI-H460
A498 = test system: A498
K562 = test system: K562
SF-295 = test system: SF-295
SK-MEL-5 = test system: SK-MEL-5

## COC(=O)Nc1nc2cc(C(=O)c3cccs3)ccc2[nH]1 [NOCODAZOLE]
M19-MEL
  GI50: 0.195 µM (active)
CAKI-1
  GI50: 1.11 µM (active)
U-251
  GI50: 0.0403 µM (active)
LXFL 529
  GI50: 0.0532 µM (active)
COLO 205
  GI50: 0.0194 µM (active)
NCI-H23
  GI50: 0.0168 µM (active)
M14
  GI50: 0.014 µM (active)
IGROV-1
  GI50: 0.0242 µM (active)
SK-OV-3
  GI50: 0.0165 µM (active)
CCRF-CEM
  GI50: 0.0145 µM (active)
NCI-H226
  GI50: 0.0625 µM (active)
HCT-116
  GI50: 0.0152 µM (active)
MCF7
  GI50: 0.0422 µM (active)
786-0
  GI50: 0.0789 µM (active)
KM12
  GI50: 0.0139 µM (active)
NCI-H460
  GI50: 0.0179 µM (active)
A498
  GI50: 0.0196 µM (active)
K562
  GI50: < 0.0118 µM (active)
SF-295
  GI50: 0.0128 µM (active)

## N#C/C(=C1\OC(=N)C(c2ccccc2)C1=O)c1ccccc1 (stereo not given)
M19-MEL
  GI50: 24 µM (inactive)
CAKI-1
  GI50: 30.6 µM (inactive)
U-251
  GI50: > 100 µM (inactive)
LXFL 529
  GI50: 17.8 µM (inactive)
COLO 205
  GI50: 22.6 µM (inactive)
NCI-H23
  GI50: > 10 µM (inactive)
M14
  GI50: 24.4 µM (inactive)
SK-MEL-5
  GI50: 26.9 µM (inactive)
IGROV-1
  GI50: 30.5 µM (inactive)
SK-OV-3
  GI50: > 100 µM (inactive)
CCRF-CEM
  GI50: 15.9 µM (inactive)
NCI-H226
  GI50: > 64.3 µM (inactive)
HCT-116
  GI50: 17.6 µM (inactive)
786-0
  GI50: 25 µM (inactive)
KM12
  GI50: 48.2 µM (inactive)
NCI-H460
  GI50: > 100 µM (inactive)
A498
  GI50: > 100 µM (inactive)
K562
  GI50: 22.6 µM (inactive)
SF-295
  GI50: > 100 µM (inactive)

## Cc1ccc(S(=O)(=O)OCC/C(=C\[Si](C)(C)C)c2ccccc2)cc1
M19-MEL
  GI50: > 100 µM (inactive)
CAKI-1
  GI50: > 100 µM (inactive)
U-251
  GI50: > 100 µM (inactive)
LXFL 529
  GI50: > 100 µM (inactive)
COLO 205
  GI50: > 100 µM (inactive)
NCI-H23
  GI50: > 100 µM (inactive)
M14
  GI50: > 100 µM (inactive)
SK-MEL-5
  GI50: > 100 µM (inactive)
IGROV-1
  GI50: > 100 µM (inactive)
SK-OV-3
  GI50: > 100 µM (inactive)
CCRF-CEM
  GI50: > 100 µM (inactive)
NCI-H226
  GI50: > 100 µM (inactive)
HCT-116
  GI50: > 100 µM (inactive)
786-0
  GI50: > 100 µM (inactive)
KM12
  GI50: > 100 µM (inactive)
NCI-H460
  GI50: > 100 µM (inactive)
A498
  GI50: > 100 µM (inactive)
K562
  GI50: > 100 µM (inactive)
SF-295
  GI50: > 100 µM (inactive)

## O=C(NC1CC1)c1c(O)[nH]c(=S)[nH]c1=O
M19-MEL
  GI50: > 100 µM (inactive)
CAKI-1
  GI50: > 100 µM (inactive)
U-251
  GI50: > 100 µM (inactive)
LXFL 529
  GI50: > 100 µM (inactive)
COLO 205
  GI50: > 100 µM (inactive)
NCI-H23
  GI50: > 100 µM (inactive)
M14
  GI50: > 100 µM (inactive)
SK-MEL-5
  GI50: > 100 µM (inactive)
IGROV-1
  GI50: > 100 µM (inactive)
SK-OV-3
  GI50: > 100 µM (inactive)
CCRF-CEM
  GI50: > 100 µM (inactive)
NCI-H226
  GI50: > 100 µM (inactive)
HCT-116
  GI50: > 100 µM (inactive)
786-0
  GI50: > 100 µM (inactive)
KM12
  GI50: > 100 µM (inactive)
NCI-H460
  GI50: > 100 µM (inactive)
A498
  GI50: > 100 µM (inactive)
K562
  GI50: > 100 µM (inactive)
SF-295
  GI50: > 100 µM (inactive)

## O=C1C=CC(=O)c2ccc(=O)ccc21
M19-MEL
  GI50: 7.55 µM (inactive)
CAKI-1
  GI50: 9.25 µM (inactive)
U-251
  GI50: 16.4 µM (inactive)
LXFL 529
  GI50: 2.54 µM (inactive)
COLO 205
  GI50: 5.01 µM (inactive)
NCI-H23
  GI50: 19.1 µM (inactive)
M14
  GI50: 14.8 µM (inactive)
SK-MEL-5
  GI50: 19.7 µM (inactive)
IGROV-1
  GI50: 18.8 µM (inactive)
SK-OV-3
  GI50: 24.1 µM (inactive)
CCRF-CEM
  GI50: 0.802 µM (active)
NCI-H226
  GI50: 34.8 µM (inactive)
HCT-116
  GI50: 10.8 µM (inactive)
MCF7
  GI50: 28.8 µM (inactive)
786-0
  GI50: 17.5 µM (inactive)
KM12
  GI50: 19.1 µM (inactive)
NCI-H460
  GI50: 21.2 µM (inactive)
A498
  GI50: 16.9 µM (inactive)
K562
  GI50: 2.4 µM (inactive)
SF-295
  GI50: 13.2 µM (inactive)

## C[C@H]1CCC2C(OC(=O)[C@@H]2CN(C)C)[C@]2(C)C(=O)C=CC12O (stereo not given in full)
M19-MEL
  GI50: 4.26 µM (inactive)
CAKI-1
  GI50: 7.06 µM (inactive)
U-251
  GI50: 17.5 µM (inactive)
LXFL 529
  GI50: 3.01 µM (inactive)
COLO 205
  GI50: 4.74 µM (inactive)
NCI-H23
  GI50: 3.26 µM (inactive)
M14
  GI50: 4.06 µM (inactive)
SK-MEL-5
  GI50: 7.16 µM (inactive)
IGROV-1
  GI50: 15.8 µM (inactive)
SK-OV-3
  GI50: 16.9 µM (inactive)
CCRF-CEM
  GI50: 1.87 µM (inactive)
NCI-H226
  GI50: 7.01 µM (inactive)
HCT-116
  GI50: 2.86 µM (inactive)
MCF7
  GI50: 7.5 µM (inactive)
786-0
  GI50: 5.26 µM (inactive)
KM12
  GI50: 4.69 µM (inactive)
NCI-H460
  GI50: 12.5 µM (inactive)
A498
  GI50: 14.2 µM (inactive)
K562
  GI50: 3.23 µM (inactive)
SF-295
  GI50: 13.2 µM (inactive)

## COc1ccccc1NC(=O)C1=C(C)NC(C)=C(C(=O)Nc2ccccc2OC)C1C1=CC=COC1
M19-MEL
  GI50: 8.97 µM (inactive)
CAKI-1
  GI50: 4.65 µM (inactive)
U-251
  GI50: 9.71 µM (inactive)
LXFL 529
  GI50: 11.1 µM (inactive)
COLO 205
  GI50: 57 µM (inactive)
NCI-H23
  GI50: 23.9 µM (inactive)
M14
  GI50: 5.2 µM (inactive)
SK-MEL-5
  GI50: 5.06 µM (inactive)
IGROV-1
  GI50: 10.8 µM (inactive)
SK-OV-3
  GI50: 10.4 µM (inactive)
CCRF-CEM
  GI50: 7.87 µM (inactive)
NCI-H226
  GI50: > 100 µM (inactive)
HCT-116
  GI50: 4.53 µM (inactive)
786-0
  GI50: 11.5 µM (inactive)
KM12
  GI50: 9.14 µM (inactive)
NCI-H460
  GI50: 3.92 µM (inactive)
A498
  GI50: 6.17 µM (inactive)
K562
  GI50: 3.78 µM (inactive)
SF-295
  GI50: 6.73 µM (inactive)
